# Laboratory results: publication PMC11508362, “Discovery of Novel Thiazole-Based SIRT2 Inhibitors as Anticancer Agents: Molecular Modeling, Chemical Synthesis and Biological Assays” (International Journal of Molecular Sciences, 2024)
# Like-named read-outs stand apart in the source and are kept apart here.
# Experiments:
# [1] = system: acetylation of α-tubulin in SCC13 cells; experiment: Western blot of α-tubulin acetylation (endogenous SIRT2 inhibition) in SCC13 cells; type: cell-based; conditions: 5 μM, 48 h, Western blot normalized to total α-tubulin
# Method: To confirm that the effect of 5a on cell viability was due to its ability to inhibit the endogenous SIRT2, Western blot analyses were performed to quantify the level of acetylation of α-tubulin, a direct substrate of SIRT2 enzymatic activity.
# SCC13 cells (3 × 10^5) were seeded in 60 mm Petri dishes and left to adhere overnight. The day after, the medium was replaced with a medium containing 5a at a final concentration of 5 µM or the respective amount of DMSO vehicle. After 48 h, the medium was removed, and cells were washed with PBS and lysed by scraping with 100 µL of lysis buffer (25 mM Tris-HCl, pH 7.8; 2 mM DTT; 2 mM EDTA, 10% glycerol; 1% Triton® X-100). The lysate was clarified by centrifugation, and the protein concentration was measured using the Bradford assay. Twenty µg of proteins were loaded on a 10% polyacrylamide gel and then transferred to a nitrocellulose membrane. The membrane was saturated with 5% skim milk powder solution in TBS-Tween 0.05%. To determine the acetylation of alpha-tubulin, membranes were incubated with an anti-acetyl-alpha-tubulin antibody (#5335, Cell Signaling Technology, Danvers, MA, USA), whose signal was normalized on the total amount of alpha-tubulin (#2125, Cell Signaling Technology).
# [2] = target: T1, SIRT2 (Homo sapiens, UniProt Q8IXJ6); conditions: cited from earlier work
# T1 sequence (Q8IXJ6 1-389): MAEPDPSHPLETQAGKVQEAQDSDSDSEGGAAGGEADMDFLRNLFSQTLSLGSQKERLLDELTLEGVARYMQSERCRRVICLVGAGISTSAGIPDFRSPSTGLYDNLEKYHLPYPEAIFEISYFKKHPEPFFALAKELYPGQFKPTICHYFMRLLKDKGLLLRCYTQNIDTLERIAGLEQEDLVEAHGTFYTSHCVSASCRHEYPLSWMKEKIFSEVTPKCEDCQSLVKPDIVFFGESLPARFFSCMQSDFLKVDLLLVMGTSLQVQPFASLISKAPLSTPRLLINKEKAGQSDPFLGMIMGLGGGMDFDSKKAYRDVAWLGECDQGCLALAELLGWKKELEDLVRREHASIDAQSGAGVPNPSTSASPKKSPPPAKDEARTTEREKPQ
# [3] = target: T2, SIRT3 (Homo sapiens, UniProt Q9NTG7); experiment: SIRT3 deacetylation reaction, recombinant protein; type: biochemical; conditions: deacetylase activity, SD always ≤10%
# T2 sequence (Q9NTG7 1-399): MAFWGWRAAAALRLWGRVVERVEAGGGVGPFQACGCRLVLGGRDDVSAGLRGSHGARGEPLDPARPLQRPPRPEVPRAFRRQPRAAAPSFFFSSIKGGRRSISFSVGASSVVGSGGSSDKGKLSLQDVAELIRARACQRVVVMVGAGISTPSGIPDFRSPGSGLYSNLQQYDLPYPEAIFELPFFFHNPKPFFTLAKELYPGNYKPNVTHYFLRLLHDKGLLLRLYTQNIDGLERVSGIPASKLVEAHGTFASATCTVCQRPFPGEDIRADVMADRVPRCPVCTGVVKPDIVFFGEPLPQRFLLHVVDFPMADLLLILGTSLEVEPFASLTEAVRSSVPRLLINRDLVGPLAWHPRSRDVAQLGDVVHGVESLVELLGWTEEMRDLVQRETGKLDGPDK
# Method: (§1) Next, the selectivity of the compounds for SIRT2 against other sirtuins was also determined. The compounds were tested at the final concentration of 150 µM in the deacetylation reaction of SIRT1, SIRT3 and SIRT6, with this last one being promoted by the addition of the SIRT6 activator MDL-800 and also in the depalmitoylation reaction of SIRT6.
# [4] = target: T3, SIRT6 (Homo sapiens, UniProt Q8N6T7); experiment: SIRT6 deacetylation reaction promoted by the SIRT6 activator MDL-800, recombinant protein; type: biochemical; conditions: with SIRT6 activator MDL-800, SD always ≤10%; for inhibition at 150 µM: read-out: % Inhibition SIRT6 (Deacetylase); for % Inhibition SIRT6 (Deacetylase): 150 µM
# Method: as §1
# [5] = target: T3, SIRT6; experiment: SIRT6 depalmitoylation reaction (H3K9Palm), recombinant protein; type: biochemical; conditions: 150 µM, SD always ≤10%
# Method: as §1
# [6] = target: T1, SIRT2; experiment: SIRT2 deacetylase activity, recombinant SIRT2 with acetylated peptide H3K9Ac and NAD+; conditions: for inhibition at 150 µM: read-out: % Inhibition SIRT2 (at 150 μM)
# Method: The effect of urea derivatives on SIRT2 deacetylase activity was evaluated upon incubation of recombinant SIRT2 with an acetylated peptide (H3K9Ac, a peptide acetylated on Lys 9) and the co-substrate NAD^+.
# [7] = target: T4, SIRT1 (Homo sapiens, UniProt Q96EB6); experiment: SIRT1 deacetylation reaction, recombinant protein; type: biochemical; conditions: deacetylase activity, SD always ≤10%
# T4 sequence (Q96EB6 1-747): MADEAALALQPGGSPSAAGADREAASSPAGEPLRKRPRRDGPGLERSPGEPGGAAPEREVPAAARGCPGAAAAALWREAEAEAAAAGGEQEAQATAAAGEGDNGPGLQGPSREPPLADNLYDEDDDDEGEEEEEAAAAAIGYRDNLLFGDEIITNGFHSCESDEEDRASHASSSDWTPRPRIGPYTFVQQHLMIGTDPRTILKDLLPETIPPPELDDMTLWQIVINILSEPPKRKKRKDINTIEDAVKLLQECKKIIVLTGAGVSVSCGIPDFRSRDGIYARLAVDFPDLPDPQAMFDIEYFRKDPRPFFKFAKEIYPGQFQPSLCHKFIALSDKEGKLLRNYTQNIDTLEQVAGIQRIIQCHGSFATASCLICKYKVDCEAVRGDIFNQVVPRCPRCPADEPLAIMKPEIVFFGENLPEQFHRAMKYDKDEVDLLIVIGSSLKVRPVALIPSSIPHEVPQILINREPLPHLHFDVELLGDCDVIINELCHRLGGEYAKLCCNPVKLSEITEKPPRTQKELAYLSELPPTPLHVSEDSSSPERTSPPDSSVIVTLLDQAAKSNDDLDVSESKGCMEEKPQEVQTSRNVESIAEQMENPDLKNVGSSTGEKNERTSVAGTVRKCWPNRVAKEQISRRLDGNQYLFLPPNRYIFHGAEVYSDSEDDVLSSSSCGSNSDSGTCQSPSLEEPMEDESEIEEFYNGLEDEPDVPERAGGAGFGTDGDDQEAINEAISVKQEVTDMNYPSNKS
# Method: as §1
# [8] = Table S1, ref [2] Schiedel et al., J. Med. Chem. 2016, read-out: IC50 of SIRT2 inhibition (Table S1)
# [9] = Table S2, SIRT2 inhibition of SirReal2 analogues, read-out: IC50 (Table S2)
# [10] = SirReal2 analogs, read-out: SIRT2 IC50
# T3 sequence (Q8N6T7 whole entry, species assumed): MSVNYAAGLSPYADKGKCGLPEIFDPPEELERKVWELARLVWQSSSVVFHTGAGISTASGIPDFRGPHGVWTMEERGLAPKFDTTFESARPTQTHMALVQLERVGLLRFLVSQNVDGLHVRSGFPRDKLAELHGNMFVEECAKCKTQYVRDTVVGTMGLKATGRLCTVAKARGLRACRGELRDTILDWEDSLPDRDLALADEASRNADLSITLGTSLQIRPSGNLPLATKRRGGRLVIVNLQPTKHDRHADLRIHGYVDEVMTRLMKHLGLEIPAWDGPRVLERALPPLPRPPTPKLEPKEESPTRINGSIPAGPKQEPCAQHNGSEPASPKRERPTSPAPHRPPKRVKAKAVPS
structure (smiles),measurement,setting,value
"N#C/C(=C\c1ccc(-c2cc(Cl)ccc2Cl)o1)C(=O)Nc1cccc2ncccc12 [AGK2, reference compound]",level of α-tubulin acetylation vs control cells,[1],increased levels of alpha-tubulin acetylation
CC(Br)C(=O)c1ccc(Br)cc1 (centres unmarked) [Compound 1],IC50,"[2]; read-out: IC50 (Table S2), Table S2, SIRT2 inhibition of SirReal2 analogues",3.75 µM
same,IC50,"[2]; read-out: IC50 of SIRT2 inhibition (Table S1), Table S1, ref [2] Schiedel et al., J. Med. Chem. 2016",3.8 µM
Cc1sc(N)nc1-c1ccc(Br)cc1 [Compound 2],IC50,[2]; [8],16.8 µM
"CC(=O)c1cccc(NC(=O)Nc2nc(-c3ccc(Br)cc3)c(C)s2)c1 [Compound 3a, 1-(3-acetylphenyl)-3-(4-(4-bromophenyl)-5-methylthiazol-2-yl)urea]",inhibition at 150 µM,[3],6%
same,inhibition at 150 µM,[4],42%
same,% Inhibition SIRT6 (Depalmiotoylase),[5],ni
same,IC50,[6],37 ± 2 µM
same,inhibition at 150 µM,[6],100 ± 5%
same,inhibition at 150 µM,[7],86%
"COc1cccc(NC(=O)Nc2nc(-c3ccc(Br)cc3)c(C)s2)c1 [Compound 3b, 1-(4-(4-bromophenyl)-5-methylthiazol-2-yl)-3-(3-methoxyphenyl)urea]",inhibition at 150 µM,[3],14%
same,% Inhibition SIRT6 (Deacetylase),[4],ni
same,% Inhibition SIRT6 (Depalmiotoylase),[5],ni
same,inhibition at 150 µM,[6],93 ± 4%
same,inhibition at 150 µM,[7],98%
"CSc1cccc(NC(=O)Nc2nc(-c3ccc(Br)cc3)c(C)s2)c1 [Compound 3c, 1-(4-(4-bromophenyl)-5-methylthiazol-2-yl)-3-(3-(methylthio)phenyl)urea]",inhibition at 150 µM,[3],20%
same,inhibition at 150 µM,[4],7%
same,% Inhibition SIRT6 (Depalmiotoylase),[5],ni
same,IC50,[6],26 ± 4 µM
same,inhibition at 150 µM,[6],96 ± 6%
same,inhibition at 150 µM,[7],100%
"Cc1sc(NC(=O)NCc2ccccc2)nc1-c1ccc(Br)cc1 [Compound 3d, 1-benzyl-3-(4-(4-bromophenyl)-5-methylthiazol-2-yl)urea]",inhibition at 150 µM,[3],23%
same,inhibition at 150 µM,[4],15%
same,% Inhibition SIRT6 (Depalmiotoylase),[5],ni
same,IC50,[6],108 ± 4 µM
same,inhibition at 150 µM,[6],100 ± 4%
same,inhibition at 150 µM,[7],99%
CCOC(=O)c1sc(N)nc1-c1ccc(Br)cc1 [Compound 4],IC50,[2]; [8],3.4 µM
CCOc1cccc(Cc2cnc(NC(=O)CSc3nc(C)cc(C)n3)s2)c1 [Compound 5],IC50,[2]; [8],1.3 µM
same,IC50,[2]; [9],1.33 µM
"CCOC(=O)c1sc(NC(=O)NCc2ccccc2)nc1-c1ccc(Br)cc1 [Compound 5d, Ethyl 2-(3-benzylureido)-4-(4-bromophenyl)thiazole-5-carboxylate]",inhibition at 150 µM,[3],24%
same,% Inhibition SIRT6 (Deacetylase),[4],ni
same,% Inhibition SIRT6 (Depalmiotoylase),[5],ni
same,inhibition at 150 µM,[6],93 ± 4%
same,inhibition at 150 µM,[7],92%
Cc1cc(C)nc(SCC(=O)Nc2ncc(Cc3ccc(-c4ccccc4)cc3)s2)n1 [Compound 6],IC50,[2]; [8],164 µM
O=C(CSc1cccc(O)c1)Nc1ncc(Cc2cccc3ccccc23)s1 [Compound 7],IC50,[2]; [10],143 to 207 µM
same,IC50,[2]; [8],143 µM
Cc1cc(C)cc(SCC(=O)Nc2ncc(Cc3cccc4ccccc34)s2)c1 [Compound 8],IC50,[2]; [10],143 to 207 µM
same,IC50,[2]; [8],207 µM
Cc1cc(C)nc(SCC(=O)Nc2ncc(C(=O)Nc3cccc4ccccc34)s2)n1 [Compound 9],IC50,[2]; [8],33 µM
Cc1cc(C)nc(SCC(=O)Nc2ncc(Cc3cccc4ccc(Cl)cc34)s2)n1 [Compound 10],IC50,[2]; [8],0.2 µM
same,IC50,[2]; [9],0.18 µM
Cc1cc(C)nc(SC(C)C(=O)Nc2ncc(Cc3cccc4ccccc34)s2)n1 (centres unmarked) [Compound 11],IC50,[2]; [8],9.8 µM
same,IC50,[2]; [9],9.77 µM
Cc1cc(C)nc(SC(C)C(=O)Nc2ncc(Cc3cccc4ccccc34)s2)n1 (centres unmarked) [Compound 12],IC50,[2]; [8],0.3 µM
same,IC50,[2]; [9],0.26 µM
Cc1cc(C)nc(SCC(=O)Nc2ncc(Cc3c(C)ccc4ccccc34)s2)n1 [Compound 13],IC50,[2]; [8],0.3 µM
same,IC50,[2]; [9],0.31 µM
Cc1cc(C)nc(SCC(=O)Nc2ncc(Cc3cccc4ccc(Br)cc34)s2)n1 [Compound 14],IC50,[2]; [10],0.21 µM
same,IC50,[2]; [8],0.2 µM
O=C(CSc1ncccn1)Nc1ncc(Cc2cccc3ccccc23)s1 [Compound 16],IC50,[2]; [8],2.3 µM
same,IC50,[2]; [9],2.34 µM
CCc1cc(CC)nc(SCC(=O)Nc2ncc(Cc3cccc4ccccc34)s2)n1 [Compound 17],IC50,[2]; [8],45.6 µM
Cc1nc(SCC(=O)Nc2ncc(Cc3cccc4ccccc34)s2)nc(C)c1C [Compound 18],IC50,[2]; [8],15 µM
same,IC50,[2]; [9],15 µM
CCCc1cc(O)nc(SCC(=O)Nc2ncc(Cc3cccc4ccccc34)s2)n1 [Compound 20],IC50,[2]; [8],127 µM
same,IC50,[2]; [9],127 µM
Cc1cc(C)nc(SCC(=O)Nc2nnc(C(F)(F)F)s2)n1 [Compound 21],IC50,[2]; [10],503 µM
Cc1cc(C)nc(SCC(=O)Nc2nnc(Cc3ccc(Cl)cc3)s2)n1 [Compound 22],IC50,[2]; [8],30.9 µM
Cc1cc(C)nc(SCC(=O)Nc2nnc(Cc3ccc(Br)cc3)s2)n1 [Compound 23],IC50,[2]; [8],168 µM
Cc1cc(C)nc(SCC(=O)Nc2nnc(Cc3cccc4ccccc34)s2)n1 [Compound 24],IC50,[2]; [8],1.9 µM
same,IC50,[2]; [9],1.89 µM
CCOc1ccc2nc(NC(=O)CSc3nc(C)cc(C)n3)sc2c1 [Compound 25],IC50,[2]; [8],207 µM
same,IC50,[2]; [9],207 µM
